The values below come from patent publication US9233106B2, “Inhibition of beta-amyloid peptide aggregation” (CORNELL RESEARCH FOUNDATION, INC., priority 2006, dated 2016).

For one series, the system named is cardiac myocytes. The conditions noted are these: cited from earlier work.
The subject of series [1] is cardiovascular functions. The conditions noted are these: anesthetized rats; cited from earlier work.
For series [2], the system named is cardiovascular functions. The conditions noted are these: squirrel monkeys; cited from earlier work.
For series [3] the following is noted: conscious rats; cited from earlier work.
Series [4] has as its target T1, Aβ(1-40) peptide (Homo sapiens, UniProt P05067). The series can be described thus: Thioflavin T fluorescence assay of Aβ(1-40) peptide aggregation. As to conditions: for effect on Aβ(1-40) peptide aggregation: different concentrations of ligand.
For series [5], the target named is T1, Aβ(1-40) peptide. Kind of series: Electrophoretic mobility shift (gel-shift) binding assay with [3H]-cocaine. As to conditions: 7-μM [3H]-cocaine, 125-μM Aβ(1-40), pH 7.4; preliminary results. The text has this: The gel was cast in a vertical electrophoresis system of dimensions 7×8×0.15 cm and run at 100 V for 2 hr at room temperature. Lane I contains 7-μM [^3H]-cocaine only and Lane II contains 7-μM [^3H]-cocaine and 125-μM Aβ(1-40) peptide. The gel was then phosphor imaged; the contrast of the image was enhanced using ImageJ 1.34, in the process of which the contrast of the band streaks compared to background was lost. The square boxes correspond to the free [^3H]-cocaine trapped in the well; the circle corresponds to the [^3H]-cocaine bound to Aβ(1-40). […] The position of the peptide corresponded to the [^3H]-cocaine bound to Aβ(1-40) (circle) in the phosphorimage in FIG. 3A.
On the other hand, the theoretical isolectric point of the Aβ(1-40) peptide is 5.37 (Wiltfang et al., “Highly Conserved and Disease-Specific Patterns of Carboxyterminally Truncated Aβ Peptides 1-37/38/39 in Addition to 1-40/42 in Alzheimer's Disease and in Patients with Chronic Neuroinflammation,” J. Neurochem. 81:481-496 (2002), which is hereby incorporated by reference in its entirety). […] The imaging plate is then scanned by using a Molecular Dynamics Storm 860 PhosphorImager, and band intensities are quantified by using the IMAGEQUANT software from Molecular Dynamics. […]

In series [6] the target is nicotinic acetylcholine receptor (Mus musculus, UniProt P02716+P04756+P04760+P09690). As to conditions: cited from earlier work.
Series [7] concerns the target T2, muscle type nicotinic acetylcholine receptor expressed in BC3H1 cells (Mus musculus, UniProt P02716+P04756+P04760+P09690).
T2 construct: nicotinic acetylcholine receptors expressed on the surface of BC3H1 cells; endogenous in cells; host or cells: BC3H1 cells
Kind of series: Whole-cell current recording, cell-flow technique, carbamoylcholine-induced currents. In kind it is cell-based. The conditions noted are these: 100-μM carbamoylcholine, listed as B55.
Method: Experiments were conducted at ˜22° C., −60 mV, and pH 7.4. The currents were induced by application of 100-μM carbamoylcholine only (lighter rising and falling line) or by a 2-second preincubation of the cells with 1-μM aptamer B55 followed by coapplication of the aptamer (at the same concentration used in preincubation) with 100-μM carbamoylcholine for 6 s (darker rising and falling line). The upper traces parallel to the abscissa represent the current amplitudes corrected for receptor desensitization that occurs during the rising phase. […] AO is the maximum current amplitude in the presence of 100-μM carbamoylcholine, and AI the maximum current amplitude in the presence of the same concentration of carbamoylcholine and different concentrations of aptamer B55. The whole-cell current was corrected for receptor desensitization. Each data point is the average of 2-4 measurements with at least two cells.
Carbamoylcholine-induced currents were recorded using the whole-cell configuration at room temperature (22-23° C.), pH 7.4, and a transmembrane voltage of −60 mV. The currents were amplified using an Axopatch 200B amplifier (Axon Instruments, Union City, Calif.) and filtered at 1 kHz (using a four-pole low-pass Bessel filter incorporated in the Axopatch 200B amplifier). […]

Series [8] addresses T1, Aβ(1-40) peptide. The conditions noted are these: Ylera et al. 2002; read-out: Kd(amyloid) for the Aβ(1-40) peptide; cited from earlier work.

“Also recorded” adds a separate entry of the source.

T1 sequence (P05067 672-711 limits assumed): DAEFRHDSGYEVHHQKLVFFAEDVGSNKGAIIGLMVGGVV
T2 sequence (P04756 21-457): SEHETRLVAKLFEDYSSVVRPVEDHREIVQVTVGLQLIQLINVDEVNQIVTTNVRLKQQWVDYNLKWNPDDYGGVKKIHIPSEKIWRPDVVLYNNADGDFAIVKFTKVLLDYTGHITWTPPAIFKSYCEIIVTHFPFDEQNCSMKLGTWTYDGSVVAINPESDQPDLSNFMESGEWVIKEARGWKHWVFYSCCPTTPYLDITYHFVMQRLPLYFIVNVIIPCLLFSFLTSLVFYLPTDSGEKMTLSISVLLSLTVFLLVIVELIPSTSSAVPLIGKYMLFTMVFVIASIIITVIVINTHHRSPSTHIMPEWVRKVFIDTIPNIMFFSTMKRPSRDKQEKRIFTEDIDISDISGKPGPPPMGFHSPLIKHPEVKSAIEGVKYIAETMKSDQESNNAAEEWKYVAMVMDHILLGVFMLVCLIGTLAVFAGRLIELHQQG
T2 sequence (P09690 24-501): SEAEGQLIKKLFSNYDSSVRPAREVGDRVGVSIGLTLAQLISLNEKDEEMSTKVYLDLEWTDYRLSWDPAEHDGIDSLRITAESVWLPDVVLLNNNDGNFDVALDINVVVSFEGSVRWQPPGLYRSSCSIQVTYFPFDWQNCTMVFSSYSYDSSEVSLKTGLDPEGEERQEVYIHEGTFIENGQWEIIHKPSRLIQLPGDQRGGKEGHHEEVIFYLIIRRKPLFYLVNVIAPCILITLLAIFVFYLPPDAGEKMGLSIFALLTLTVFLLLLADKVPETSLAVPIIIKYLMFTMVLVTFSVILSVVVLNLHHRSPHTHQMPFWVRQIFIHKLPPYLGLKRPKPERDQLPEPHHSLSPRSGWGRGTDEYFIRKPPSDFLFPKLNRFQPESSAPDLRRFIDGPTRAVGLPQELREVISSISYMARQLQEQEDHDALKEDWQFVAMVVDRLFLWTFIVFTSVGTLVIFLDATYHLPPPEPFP
T2 sequence (P04760 23-519): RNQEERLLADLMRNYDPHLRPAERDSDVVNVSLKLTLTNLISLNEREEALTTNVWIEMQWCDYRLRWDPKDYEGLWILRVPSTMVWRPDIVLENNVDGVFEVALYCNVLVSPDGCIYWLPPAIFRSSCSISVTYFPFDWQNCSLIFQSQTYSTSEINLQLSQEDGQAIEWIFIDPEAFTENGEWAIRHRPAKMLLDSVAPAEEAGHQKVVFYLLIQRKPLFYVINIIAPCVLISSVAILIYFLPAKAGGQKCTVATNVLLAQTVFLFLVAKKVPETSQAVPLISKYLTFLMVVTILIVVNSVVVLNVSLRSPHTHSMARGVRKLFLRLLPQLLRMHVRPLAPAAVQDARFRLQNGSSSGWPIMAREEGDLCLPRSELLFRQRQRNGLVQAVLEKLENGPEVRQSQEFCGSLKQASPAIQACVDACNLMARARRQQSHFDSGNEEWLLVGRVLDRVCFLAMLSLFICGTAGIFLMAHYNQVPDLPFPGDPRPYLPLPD
T2 sequence (P02716 25-520): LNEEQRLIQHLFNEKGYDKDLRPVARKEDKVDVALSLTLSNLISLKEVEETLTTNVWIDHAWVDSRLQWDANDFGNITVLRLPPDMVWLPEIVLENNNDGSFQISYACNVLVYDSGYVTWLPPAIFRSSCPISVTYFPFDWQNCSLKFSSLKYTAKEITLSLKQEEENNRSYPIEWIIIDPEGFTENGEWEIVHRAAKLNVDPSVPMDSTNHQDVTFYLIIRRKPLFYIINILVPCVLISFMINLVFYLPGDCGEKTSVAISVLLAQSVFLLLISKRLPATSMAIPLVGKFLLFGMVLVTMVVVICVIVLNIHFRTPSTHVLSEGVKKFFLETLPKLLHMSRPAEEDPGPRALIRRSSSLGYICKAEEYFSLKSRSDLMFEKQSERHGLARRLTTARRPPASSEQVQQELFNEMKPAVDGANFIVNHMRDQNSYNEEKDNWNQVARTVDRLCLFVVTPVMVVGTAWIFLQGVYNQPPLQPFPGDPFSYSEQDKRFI
Sequence of nicotinic acetylcholine receptor (P04756 21-457): as the sequence (P04756 21-457) above
Sequence of nicotinic acetylcholine receptor (P09690 24-501): as the sequence (P09690 24-501) above
Sequence of nicotinic acetylcholine receptor (P04760 23-519): as the sequence (P04760 23-519) above
Sequence of nicotinic acetylcholine receptor (P02716 25-520): as the sequence (P02716 25-520) above

Take `COC(=O)C1C(O)CC2CCC1N2C` (stereo not shown): in the series with cardiac myocytes, the “concentration with no effect on cardiovascular functions in vitro” value is “up to 100 μM”. Moreover, in the series on cardiovascular functions [1], the “dose with no effect on cardiovascular functions in vivo, i.v. infusion” value is on record as “up to 1.5 mg/kg/min”. Besides, the “dose with no effect on cardiovascular functions in vivo, i.v. bolus” value with cardiovascular functions [2] was “up to 10 mg/kg”. Moreover, the “brain tissue concentration corresponding to the lowest toxic daily dose” value in series [3] is 478.43±57.89. The “effect on Aβ(1-40) peptide aggregation” value on Aβ(1-40) peptide [4] (50-μM Aβ(1-40), 37° C., 2 days) is listed as “inhibit aggregation of Aβ(1-40) in a dose-dependent manner; also recorded: dose-dependent inhibition”. Further, the “concentration required to abolish the aggregation of Aβ(1-40) in the brain (estimated therapeutic concentration)” value at Aβ(1-40) peptide [4] (order-of-magnitude approximation calculated from FIG. 4A and CSF Aβ(1-40) concentration) is on record as around 40 ng/g.
On to `C[C@]12N[C@H](Cc3ccccc31)c1ccccc12` [MK-801, dizocilpine, reference compound], for which the “effect on Aβ(1-40) peptide aggregation” value at Aβ(1-40) peptide [4] (50-μM Aβ(1-40), 37° C., 2 days) is on record as “inhibit aggregation of Aβ(1-40) in a dose-dependent manner; also recorded: dose-dependent inhibition”.
`c1ccc(C2(N3CCCCC3)CCCCC2)cc1` [PCP, phencyclidine, reference compound]: at Aβ(1-40) peptide [4] (1-mM PCP, 50-μM Aβ(1-40), 37° C., 2 days), the “effect on Aβ(1-40) peptide aggregation at 1 mM” value is recorded as “abrogates Aβ aggregation; also recorded: abolished amyloid aggregation”.
Consider `COC(=O)C1=CC(=O)C2CC(S(=O)(=O)c3ccccc3)C1N2C` (stereo not shown) [RCS-III-140A], for which the “effect on Aβ(1-40) peptide aggregation” value on Aβ(1-40) peptide [4] (50-μM Aβ(1-40), 37° C., 2 days) is reported as “inhibit aggregation”.
Same read-out and setting: the result for `CN1C2CC(S(=O)(=O)c3ccccc3)C1C(C(=O)[O-])=CC2=O.[Li+]` (stereo not shown) [RCS-III-143] reads “inhibit aggregation”.
For the molecule `COC(=O)C1=C(c2ccccc2)C(=O)C2CC(S(=O)(=O)c3ccccc3)C1N2C` (stereo not shown) [RCS-III-202A], at Aβ(1-40) peptide [4] (50-μM Aβ(1-40), 37° C., 2 days), the “effect on Aβ(1-40) peptide aggregation” value is given as “inhibit aggregation”.
Still for that read-out and setting: the result for `CN1C2CC(S(=O)(=O)c3ccccc3)C1C(C(=O)[O-])=C(c1ccccc1)C2=O.[Li+]` (stereo not shown) [RCS-III-218] reads “inhibit aggregation”.
As to `CN1C2CCC1C(C(=O)O)C(c1ccc(Cl)cc1)C2` (stereo not shown) [RTI-4229-70], the “effect on Aβ(1-40) peptide aggregation” value on Aβ(1-40) peptide [4] (50-μM Aβ(1-40), 37° C., 2 days) is on record as “dose-dependent inhibition”; at Aβ(1-40) peptide [4] (50-μM Aβ(1-40), 37° C., 2 days, listed as RTI 4220-70) it was “inhibit aggregation of Aβ(1-40) in a dose-dependent manner”.
Regarding `COC(=O)C1C(OC(=O)c2ccccc2)CC2CCC1N2C` (stereo not shown) [cocaine], the “binding of cocaine to the Aβ(1-40) peptide” value at Aβ(1-40) peptide [5] was “binds; also recorded: direct binding”. Further, on Aβ(1-40) peptide [4] (50-μM Aβ(1-40), 37° C., 2 days), the “effect on Aβ(1-40) peptide aggregation” value is listed as “dose-dependent inhibition”.
Take `CN1C2CCC1C(C(=O)O)C(O)C2` (stereo not shown) [ecgonine]: the “effect on Aβ(1-40) peptide aggregation” value at Aβ(1-40) peptide [4] (50-μM Aβ(1-40), 37° C., 2 days) is “inhibit aggregation of Aβ(1-40) in a dose-dependent manner; also recorded: dose-dependent inhibition”.
For `COC(=O)C1C(OC(C)=O)CC2CCC1N2C` (stereo not shown) [reference compound], the “alleviation of cocaine inhibition of the nicotinic acetylcholine receptor” value in series [6] was “does not alleviate cocaine inhibition”. In addition, at Aβ(1-40) peptide [4] (50-μM Aβ(1-40), 37° C., 2 days), the “effect on Aβ(1-40) peptide aggregation” value is “does not inhibit aggregation; also recorded: dose-dependent acceleration”.
As to “UUCACCG ((i.e., UUCACCG); as printed in the source, key not given here)”, the “effect on Aβ(1-40) peptide aggregation at 500 μM” value with Aβ(1-40) peptide [4] (500-μM oligonucleotide, 50-μM Aβ(1-40), 37° C., 2 days) is listed as “abolished amyloid aggregation”.

B1: 5′-UUUACCGUAAGGCCUGUCUUCGUUUGACAGCGGCUUGUUGACCCUCACACUUUGUACCUGCUGCCAA-3′ (nucleic acid)
chain: UUUACCGUAAGGCCUGUCUUCGUUUGACAGCGGCUUGUUGACCCUCACACUUUGUACCUGCUGCCAA
modifications: chemistry not given here
Regarding B1, the “inhibition of carbamoylcholine-induced currents from the nicotinic acetylcholine receptor” value in [7] is reported as “inhibited carbamoylcholine-induced currents from the nicotinic acetylcholine receptor in a dose-dependent manner; also recorded: inhibition”. The Kd with Aβ(1-40) peptide [8] was 29 nM.

The term Kd denotes the concentration at which binding is half-saturated.
